Measured values from patent publication US8476043B2, “Inhibitors for the soluble epoxide hydrolase” (The Regents of the University of California, priority 2004, dated 2013).
≈ marks a conversion by molar mass, not a printed value.

Columns and labels:
[1] = In vitro metabolism in liver microsomes and S9 fractions; assay type: in vitro ADME; details: rat and human microsomes, with NADPH
Description: Both rat and human microsomes were used for the 950 metabolism study.

[2] = target: T1, human sEH (Homo sapiens, UniProt P34913); assay: sEH inhibition, spectrometric assay with racemic 4-nitrophenyl-trans-2,3-epoxy-3-phenylpropyl carbonate as substrate; assay type: biochemical; details: Table 5; spectrometric-based assay; read-out: Human sEH IC50
T1 construct: made in house
T1 sequence (P34913 1-555): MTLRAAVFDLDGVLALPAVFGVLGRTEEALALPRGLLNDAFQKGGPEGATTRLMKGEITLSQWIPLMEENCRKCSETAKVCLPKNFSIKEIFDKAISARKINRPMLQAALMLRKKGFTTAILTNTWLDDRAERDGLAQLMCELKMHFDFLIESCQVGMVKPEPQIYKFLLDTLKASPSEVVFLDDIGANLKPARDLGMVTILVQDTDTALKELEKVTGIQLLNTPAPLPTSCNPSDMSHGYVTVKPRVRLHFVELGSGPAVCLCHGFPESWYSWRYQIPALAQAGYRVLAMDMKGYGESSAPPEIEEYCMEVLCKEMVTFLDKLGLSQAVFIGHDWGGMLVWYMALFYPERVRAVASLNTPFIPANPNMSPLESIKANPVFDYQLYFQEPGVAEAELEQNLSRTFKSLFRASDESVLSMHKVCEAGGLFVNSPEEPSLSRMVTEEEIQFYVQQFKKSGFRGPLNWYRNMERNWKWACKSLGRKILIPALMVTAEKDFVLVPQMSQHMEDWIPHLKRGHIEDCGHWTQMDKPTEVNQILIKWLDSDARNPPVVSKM
Description: (§1) Recombinant mouse sEH and human sEH were produced in a baculovirus expression system and purified by affinity chromatography. […] Protein concentration was quantified by using the Pierce BCA assay using Fraction V bovine serum albumin as the calibrating standard.
(§2) IC50 values were determined in one of two method. One method uses racemic 4-nitrophenyl-trans-2,3-epoxy-3-phenylpropyl carbonate as substrate. […] Assays were performed in triplicate. […] The curve was generated from at least three separate runs, each in triplicate, to obtain the standard deviation (SD) given in Table 1 thru Table 4.

[3] = target: T2, mouse sEH (Mus musculus, UniProt P34914); assay: as above; assay type: biochemical; details: Table 5; spectrometric-based assay; read-out: Mouse sEH IC50
T2 construct: made in house
T2 sequence (P34914 1-554): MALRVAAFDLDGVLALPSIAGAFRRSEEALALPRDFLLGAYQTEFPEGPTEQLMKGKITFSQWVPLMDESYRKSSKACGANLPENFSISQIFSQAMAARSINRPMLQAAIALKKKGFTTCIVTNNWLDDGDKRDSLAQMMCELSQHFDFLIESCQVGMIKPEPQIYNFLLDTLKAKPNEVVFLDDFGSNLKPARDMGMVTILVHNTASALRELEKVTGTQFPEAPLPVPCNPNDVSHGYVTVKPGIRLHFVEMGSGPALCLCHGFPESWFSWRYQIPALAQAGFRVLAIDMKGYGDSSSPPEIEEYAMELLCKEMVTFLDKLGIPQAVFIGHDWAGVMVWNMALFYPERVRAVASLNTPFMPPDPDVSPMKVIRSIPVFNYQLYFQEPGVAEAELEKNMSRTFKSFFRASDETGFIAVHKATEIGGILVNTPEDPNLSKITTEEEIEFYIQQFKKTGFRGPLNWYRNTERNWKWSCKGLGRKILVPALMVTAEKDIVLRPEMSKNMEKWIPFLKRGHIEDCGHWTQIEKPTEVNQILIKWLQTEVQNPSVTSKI
Description: as §1, §2

[4] = target: T1, human sEH; assay: sEH inhibition, fluorescent assay with cyano(6-methoxy-naphthalen-2-yl)methyl trans-[(3-phenyloxiran-2-yl)methyl]carbonate as substrate; assay type: biochemical
Procedure, shortened: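 Affinity-purified recombinant human sEH from baculovirus expression; activity followed as formation of fluorescent 6-methoxy-2-naphthaldehyde from the carbonate substrate. IC50 by regression of at least five points, two on each side of the IC50 in the linear region, from at least three separate runs, each in triplicate.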

[5] = Solubility in oil; assay type: physicochemical; details: Table 5
[6] = Solubility in water; assay type: physicochemical

Row | IC50 [2] [nM] | IC50 [3] [nM] | IC50 ([4]; Table 5, fluorescent-based assay, 0.96 nM human sEH, pH 7.0, [S] = 5 μM, read-out: Human sEH IC50) [nM] | fold improvement in inhibition of the human enzyme ([4]; compared with 687 (compound 4)) | Solubility in oil [5] | fold lower water solubility than compound 4 (687) [6] [fold] | solubility ([6]; water, Table 5) [µg/mL] | SMILES | major metabolite in vitro [1]
1 |  |  |  |  |  |  |  | CCOCCOCCOCCCCCNC(=O)NC12CC3CC(CC(C3)C1)C2 [Compound 950] | hydroxy metabolite was the major metabolite
2 | 100 ± 10 | 50 ± 10 | 2.1 | about 1.5 fold | 4,000 μg/mL | 3 | 10 (≈ 21.3 µM) | CS(=O)(=O)NC(=O)CCCCCCCCCCCNC(=O)NC12CC3CC(CC(C3)C1)C2 [Compound 848, N-[12-(3-Adamantan-1-yl-ureido)dodecanoyl]methanesulfonamide] | 
